# Source: US11365227B2, “Peptide and pharmaceutical compositions of same for use as an antimicrobial and in cancer treatment” (UNIVERSITAT DE VALÈNCIA, priority 2017, dated 2022)
# Where no end group is shown, it is not given here.
# Experiments:
# [1] = tested on: MDA-MB-231 triple-negative breast cancer cells; experiment: MTS cell viability, combined treatments of PaSK with chemotherapeutic agents
# S. aureus [2] = experiment: Antimicrobial activity by flow cytometry (SYBR Green / propidium iodide); type: cell-based, Staphylococcus aureus subsp. aureus CECT 4013; conditions: 25 μg/mL, 8 h at 37° C., 2 replicates
# Procedure: The strain used was CECT 4013 of S. aureus subsp. aureus, publicly accessible deposited in the Spanish Type Culture Collection (CECT).
# Starting from cells of S. aureus cultured overnight in a liquid medium LB (peptone 1%, yeast extract 0.5% and NaCl 1%) at 37° C. with stirring, aliquots were obtained in a new liquid medium and allowed to grow until reaching an optical density at 600 nm (OD600) of 0.5, optimum for detection in the flow cytometer. Aliquots were prepared with a concentration of 5×10^6 cfu/100 μL of S. aureus to which were added 10, 15, 20 and 25 μg/mL of PaSK, 25 μg/mL of TcDef3-pep and H2O (negative control), solvent used to dilute the peptides. The mixtures were incubated at 37° C. for 8 h and marked with the fluorochromes SYBR Green (Invitrogen) (25 μL of a SYBR Green 25× solution in H2O) that stains all the cells and propidium iodide (Sigma) (10 μL of propidium iodide 1 mg/mL) that stains dead cells. Finally, the cell death caused by the peptides was analysed by flow cytometry with the equipment BD Facs Verse (Becton Dickinson), from the cell culture and flow cytometry section of the Central Services for Research Support of the University of Valencia. The experiments were performed in duplicate.
# The flow cytometer forces cells to pass one by one through a needle, creating a thin line of liquid and detecting how the laser beam (argon emission laser at 488 nm, in the equipment used) interacts with the cells, depending on how the incident light is deviated and the fluorescence emitted by the excited fluorochromes. The results are presented as graphs obtained with the analysis program BD Facs suite v1.0.5.3841 (Becton Dickinson). […] Then, a second graph is obtained with the parameters SSC and FITC (fluorescence parameter indicating the cells containing SYBR Green), to differentiate the cells from the other particles that may be present in the sample. Lastly, a third graph is obtained with the fluorescence parameters FITC and PerCPCy5.5 (indicating the cells stained with propidium iodide) to differentiate the cells that have been stained only by SYBR Green from those stained with propidium iodide, which will be those that have died.
# The antimicrobial activity of the peptide PaSK was determined by flow cytometry. […] Therefore, the use of these two fluorochromes provides a method for determining viable cells, quantifying the loss of cell viability from the increase in propidium iodide inside the dead cells.
# After incubating the cells of strain CECT 4013 of S. aureus with 25 μg/mL of the peptides TcDef3-pep and PaSK, the percentage of dead cells was determined. […] FIGS. 1A-1D show the graphs corresponding to the fluorescence obtained in the windows of the flow cytometer.
# S. aureus [3] = experiment: Transmission electron microscopy of S. aureus cells treated with peptides; type: cell-based, Staphylococcus aureus subsp. aureus CECT 4013; conditions: 25 μg/mL, 1 h
# Procedure: The samples were prepared in the same way as for scanning electron microscopy, except for the series of graded dehydration with ethanol, in which only the 90° grade was reached. Then the samples were included in resin in 4 steps: ethanol 96°—resin LR-White 2:1 (20 h), ethanol 100°—resin 2:1 (20 h), ethanol 100°—resin 1:2 (20 h) and 100% resin (24 h at 60° C.). After the samples were included in the resin the block was prepared for ultrathin cuts of 60 nm in the equipment Leica UC6 Ultracut Microtome.
# Transmission electron microscopy provides high-resolution images which were used to view the ultrastructural damage caused by the peptides inside the bacteria. The cells of S. aureus CECT 4013 were treated with the peptides hBD-3, TcDef3-pep and PaSK at a concentration of 25 μg/mL, for 1 h, and analysed using transmission electron microscopy (FIG. 6). In cells without treatment, an intact cytoplasm membrane (3) and peptidoglycane wall (2) were observed, typical of a Gram+ bacteria as S. aureus, as well as a division septum (1) without malformations, while in treated cells different types of alterations were observed. […] Small size circular structures (9) are observed. These structures show a different electrodensity from cells and lack a cytoplasm membrane and peptidoglycane wall. The biofilm formed by the cells treated with peptides was also observed in the images obtained by transmission electron microscopy (FIG. 7) and it was not observed in the cells treated with human defensin hBD-3 (FIG. 6).
# S. aureus [4] = experiment: Scanning electron microscopy of S. aureus cells treated with peptides; type: cell-based, Staphylococcus aureus subsp. aureus CECT 4013; conditions: 25 μg/mL, 1 h
# Procedure: The cells were prepared in the same way as for the flow cytometry technique and the same aliquots and treatments were performed. The samples were incubated at 37° C. for 1 h. The bacteria were fixed with Karnosky (2.5% paraformaldehyde and 0.5 glutaraldehyde) for 2 h at 4° C. After washing (centrifuging and eliminating the supernatant) they were fixed with 2% osmium tetraoxide for another 2 h, washed again and filtered with a 0.2 μm filter. The cells were then dehydrated in graded ethanol series (30°, 50°, 70°, 90°, 100°) for 10 min in each gradation. To carry out the critical point drying, the ethanol was replaced with liquid CO2, the temperature was increased to accelerate evaporation and the pressure was lowered slowly to conserve the exact shape of the bacteria. Finally, shading with gold palladium was performed for 2 min observing the results in the equipment FEG-SEM HITACHI S4800 at 10 Kv.
# Scanning electron microscopy provides high-resolution images used to view the damage caused by the peptides to the bacterial membrane. The cells of S. aureus CECT 4013 were treated with the peptides hBD-3, TcDef3-pep and PaSK at a concentration of 25 μg/mL, for 1 h, and analysed using scanning electron microscopy (FIG. 4). In cells without treatment the circular and uniform form typical of S. aureus was observed, with the intact membrane, while in treated cells various types of morphological alterations can be seen. […] With this treatment small circular structures are observed, smaller than the cells of S. aureus.
# S. aureus [5] = conditions: 10 μg/mL; Contreras et al., 2015; cited from earlier work
# [6] = chemotherapeutic agent alone, 72 h, 3 replicates
Compound,"EC50 [1, 6] [µM]","EC50 ([1]; Homo sapiens, MDA-MB-231, 72 h) [µM]",percentage of dead cells (cytotoxicity) (S. aureus [2]),"ultrastructural damage, transmission electron microscopy (S. aureus [3])","biofilm formation, scanning electron microscopy (S. aureus [4])","morphological alterations, scanning electron microscopy (S. aureus [4])",further results
O=c1[nH]cc(F)c(=O)[nH]1 [5-fluorouracyl],25.3 ± 4.33,–,–,–,–,–,–
N.N.[Cl][Pt][Cl] [cisplatin],168 ± 53.9,–,–,–,–,–,–
COc1cccc2c1C(=O)c1c(O)c3c(c(O)c1C2=O)C[C@@](O)(C(=O)CO)C[C@@H]3O[C@H]1C[C@H](N)[C@H](O)[C@H](C)O1 [doxorubicin],–,0.407 ± 0.033,–,–,–,–,–
CC(=O)O[C@H]1C(=O)[C@@]2(C)[C@H]([C@H](OC(=O)c3ccccc3)[C@]3(O)C[C@H](OC(=O)[C@H](O)[C@@H](NC(=O)c4ccccc4)c4ccccc4)C(C)=C1C3(C)C)[C@]1(OC(C)=O)CO[C@@H]1C[C@@H]2O [paclitaxel],–,0.008 ± 0.005,–,–,–,–,–
"TcDef3-pep: 29 amino acid peptide fragment of Tribolium castaneum defensin 3, SEQ ID NO: 2, disclosed in Contreras et al., 2015 (VNHAACAAHCLLKRKRGGYCNKRRICVCR)",–,–,~55%,malformations and bulges in the bacterial membrane,biofilm produced,bulges are observed in the bacterial membrane,mortality percentage (S. aureus [5]): 9.2%
"hBD-3: human defensin hBD-3 (PeptaNova), positive control (GIINTLQKYYCRVRGGRCAVLSCLPKEEQIGKCSTRGRKCCRRKK; ends and bridges not checked; cysteine pairing not given here; UniProt P81534 23-67, looked up)",–,–,around 70%,malformations (4) and lysis of the membrane,did not form a biofilm,structural damage and lysis of the membrane,–
